“Also recorded” adds a separate entry of the source.
Columns and labels:
[1] = target: hERG (Homo sapiens (Human), UniProt Q12809); experiment: in vitro; conditions: CHO cells stably expressing hERG
Description: (§1) The test compounds were added to cultured hERG (human Ether-a-go-go Related Gene) gene stably expressing CHO cell line cells to achieve 0.27 to 100 μM.

[2] = target: CYP3A4 (Homo sapiens (Human), UniProt P08684); experiment: CYP3A4 MBI and enzyme inactivation clearance evaluation; assay type: in vitro ADME; conditions: human liver microsome; for Factor of change in IC50 value: by pre-incubation with NADPH, MBI action when 2-fold or greater
Description: The effect and mode of inhibition of the test compound on CYP3A4 were evaluated using a human liver microsome as an enzyme source and midazolam or testosterone as a substrate. […] The IC50 value was calculated from a concentration plot.

[3] = target: CHK1 (Homo sapiens (Human), UniProt O14757); experiment: CHK1 inhibitory activity test (IMAP TR-FRET); assay type: biochemical; conditions: for effect of suppressing CHK1 activity (in words): compared with prexasertib; for inhibition at 0.0001 µM: read-out: CHK1 inhibition % at 0.1 nM
CHK1, sequence (O14757 whole entry): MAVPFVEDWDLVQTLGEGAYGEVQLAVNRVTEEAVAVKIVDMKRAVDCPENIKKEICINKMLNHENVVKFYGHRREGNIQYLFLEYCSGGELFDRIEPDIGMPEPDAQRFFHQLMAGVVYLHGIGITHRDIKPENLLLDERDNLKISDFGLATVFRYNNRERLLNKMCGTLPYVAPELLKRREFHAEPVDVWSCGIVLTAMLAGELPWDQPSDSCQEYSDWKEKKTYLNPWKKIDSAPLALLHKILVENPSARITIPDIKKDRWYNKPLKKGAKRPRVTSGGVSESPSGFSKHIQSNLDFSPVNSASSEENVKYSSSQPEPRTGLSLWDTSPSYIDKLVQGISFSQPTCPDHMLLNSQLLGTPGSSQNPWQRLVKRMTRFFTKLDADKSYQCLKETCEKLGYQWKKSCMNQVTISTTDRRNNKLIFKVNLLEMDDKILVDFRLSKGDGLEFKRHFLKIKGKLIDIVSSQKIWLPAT

[4] = test system: ES-2 cells; experiment: Cell growth suppression experiment; assay type: cell-based; conditions: for IC50: Homo sapiens, 48 h, cultured for 2 days, read-out: IC50 (cell growth suppression, ranking); for cell growth suppression effect (in words): compared with prexasertib
[5] = target: hERG current (Homo sapiens (Human), UniProt Q12809); experiment: hERG current blocking test; conditions: for hERG/CHK1: IC50 of hERG divided by IC50 of CHK1 inhibition of Test Example 1; for IC50: read-out: hERG inhibition IC50, hERG stably expressing CHO cells, Qube384
hERG current, sequence (Q12809 whole entry): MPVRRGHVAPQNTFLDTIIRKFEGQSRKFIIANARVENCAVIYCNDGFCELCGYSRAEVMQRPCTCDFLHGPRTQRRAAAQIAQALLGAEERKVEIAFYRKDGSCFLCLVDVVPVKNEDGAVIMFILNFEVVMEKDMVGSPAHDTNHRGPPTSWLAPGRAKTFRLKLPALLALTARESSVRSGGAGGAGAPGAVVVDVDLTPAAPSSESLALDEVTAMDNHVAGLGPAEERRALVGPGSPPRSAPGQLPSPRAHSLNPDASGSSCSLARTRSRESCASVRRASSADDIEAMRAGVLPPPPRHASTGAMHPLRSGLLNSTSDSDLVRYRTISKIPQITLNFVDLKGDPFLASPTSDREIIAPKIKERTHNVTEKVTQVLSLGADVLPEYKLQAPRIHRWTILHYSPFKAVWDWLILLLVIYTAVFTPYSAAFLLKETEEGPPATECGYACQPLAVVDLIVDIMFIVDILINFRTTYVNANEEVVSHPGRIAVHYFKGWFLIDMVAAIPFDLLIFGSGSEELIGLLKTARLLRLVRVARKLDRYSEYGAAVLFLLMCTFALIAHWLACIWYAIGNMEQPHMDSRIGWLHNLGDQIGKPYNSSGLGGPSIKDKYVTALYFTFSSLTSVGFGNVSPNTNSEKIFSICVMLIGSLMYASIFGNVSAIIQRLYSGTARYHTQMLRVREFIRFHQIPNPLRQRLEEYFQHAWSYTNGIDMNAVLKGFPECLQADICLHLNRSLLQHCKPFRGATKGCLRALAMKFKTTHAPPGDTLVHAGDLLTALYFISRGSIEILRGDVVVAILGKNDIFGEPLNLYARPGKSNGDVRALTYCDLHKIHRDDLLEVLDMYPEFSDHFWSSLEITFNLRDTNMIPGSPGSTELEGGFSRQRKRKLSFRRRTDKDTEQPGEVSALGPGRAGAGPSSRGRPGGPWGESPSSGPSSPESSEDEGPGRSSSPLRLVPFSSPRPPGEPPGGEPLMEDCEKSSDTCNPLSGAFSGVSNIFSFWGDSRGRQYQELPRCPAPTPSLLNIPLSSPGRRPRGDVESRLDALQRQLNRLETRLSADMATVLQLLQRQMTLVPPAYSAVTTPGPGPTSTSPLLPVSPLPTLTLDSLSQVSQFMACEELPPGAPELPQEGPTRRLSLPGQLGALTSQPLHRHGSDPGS
Description: as §1

[6] = test system: neutrophil count; experiment: Measurement of neutrophil count using tumor-bearing mice transplanted with ES-2 cells (Test Example 17); assay type: in vivo; conditions: 30 mg/kg, 14 days, 2 times/week; 96 hours after final administration
Description: Blood was collected 96 hours after the final administration to measure the neutrophil count.
Ratio of residual neutrophils (%)=(neutrophil count of administration group 96 hours after administration)/(neutrophil count of control administration group 96 hours after administration)×100

CYP3A4, sequence (P08684 whole entry): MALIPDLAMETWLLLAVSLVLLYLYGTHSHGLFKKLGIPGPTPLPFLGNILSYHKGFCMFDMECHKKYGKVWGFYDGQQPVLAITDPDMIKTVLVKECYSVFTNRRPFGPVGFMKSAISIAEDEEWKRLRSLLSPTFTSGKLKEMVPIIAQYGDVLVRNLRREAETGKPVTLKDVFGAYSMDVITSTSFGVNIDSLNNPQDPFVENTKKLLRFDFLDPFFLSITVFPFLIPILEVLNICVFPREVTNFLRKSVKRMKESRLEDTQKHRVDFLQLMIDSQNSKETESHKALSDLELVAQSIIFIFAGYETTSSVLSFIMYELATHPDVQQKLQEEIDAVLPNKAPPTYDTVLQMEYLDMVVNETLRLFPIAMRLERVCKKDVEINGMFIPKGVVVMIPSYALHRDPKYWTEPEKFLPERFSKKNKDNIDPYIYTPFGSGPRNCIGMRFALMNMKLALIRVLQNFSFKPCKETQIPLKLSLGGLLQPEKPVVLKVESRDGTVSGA
hERG, sequence (Q12809 whole entry): as the sequence (Q12809 whole entry) above

Structure (SMILES): COc1nccc(OCC2(CO)CNC2)c1-c1cc(Nc2cnc(C#N)cn2)n[nH]1 [Example 8, 5-{[5-(4-{[3-(hydroxymethyl)azetidin-3-yl]methoxy}-2-methoxypyridin-3-yl)-1H-pyrazol-3-yl]amino}pyrazine-2-carbonitrile]
- selectivity ratio [1]: ≥ 100000
- Factor of change in IC50 value [2]: Not Detected
- IC50 [3]: < 0.1 nM
- effect of suppressing CHK1 activity (in words) [3]: more potent effect of suppressing CHK1 activity than prexasertib; also recorded: especially potently suppressing CHK1 activity
- inhibition at 0.0001 µM [3]: 51%
- IC50 [4]: 30 to 100 nM
- hERG/CHK1 [5]: >1000000
- IC50 [5]: > 100000 nM

Structure (SMILES): COc1cncc(OC[C@H](F)CN)c1-c1cc(Nc2cnc(C#N)cn2)n[nH]1 [Example 30, 5-[(5-{3-[(2R)-3-amino-2-fluoropropoxy]-5-methoxypyridin-4-yl}-1H-pyrazol-3-yl)amino]pyrazine-2-carbonitrile]
- Factor of change in IC50 value [2]: Not Detected
- effect of suppressing CHK1 activity (in words) [3]: more potent effect of suppressing CHK1 activity than prexasertib
- inhibition at 0.0001 µM [3]: 28%
- IC50 [4]: < 30 nM
- cell growth suppression effect (in words) [4]: excellent cell growth suppression effect that is equivalent to that of prexasertib
- hERG/CHK1 [5]: 40000

Structure (SMILES): COc1ccnc(OCC2(CN)CC2)c1-c1cc(Nc2cnc(C#N)cn2)n[nH]1 [Example 37, 5-{[5-(2-{[1-(aminomethyl)cyclopropyl]methoxy}-4-methoxypyridin-3-yl)-1H-pyrazol-3-yl]amino}pyrazine-2-carbonitrile]
- Factor of change in IC50 value [2]: Not Detected
- inhibition of CYP3A4 based on MBI (in words) [2]: do not exhibit inhibition of CYP3A4 based on MBI
- effect of suppressing CHK1 activity (in words) [3]: more potent effect of suppressing CHK1 activity than prexasertib
- inhibition at 0.0001 µM [3]: 18%
- IC50 [4]: < 30 nM
- cell growth suppression effect (in words) [4]: excellent cell growth suppression effect that is equivalent to that of prexasertib
- hERG/CHK1 [5]: <8438
- IC50 [5]: < 2700 nM

Structure (SMILES): Nc1ccn([C@@H]2O[C@H](CO)[C@@H](O)C2(F)F)c(=O)n1 [Gemcitabine]
- Ratio of residual neutrophils [6]: 39%

— patent publication US11564920B2, “5-heteroaryl-1H-pyrazol-3-amine derivative” (Sumitomo Pharma Co., Ltd., priority 2020, dated 2023)
